According to ChEMBL document CHEMBL3638792, “Indazoles” (2014):

Legend:
[1] = molecular target: Tyrosine-protein kinase JAK1 (Homo sapiens, UniProt P23458); experiment: High ATP Caliper Endpoint Assay: JAK1 enzyme (Invitrogen) stock solution is made up at 5.2 uM in sterile water. JAK1 enzyme stock is diluted to 20 nM in assay buffer (10 mM HEPES free acid pH 7.5, 10 mM HEPES free base pH 7.5, 10 mM MgCL2, 0.0005% Tween-20, 0.01% BSA) containing 2 mM DTT (all supplied by Sigma) with the addition of one protease tablet per 25 mls buffer (Roche). ATP is made up at 10 mM stock in sterile water and diluted to 5 mM in assay buffer. Peptide H236 (Caliper Life Sciences) is made up at 1.5 mM in 100% DMSO and diluted to 3 uM in assay buffer. Stop buffer comprises 140 mM HEPES, 22.5 mM EDTA (Sigma) and 0.15% coating reagent (Caliper Life Sciences).Assays are performed in Greiner polypropylene 384 well plates. Following compound preparation within the plate 10 ul of enzyme in assay buffer containing DTT is added using a Multidrop Micro. Final assay concentration of enzyme is 10 nM. Compound and enzyme are pre-incubated for 30 minutes at room temperature.
Sequence of Tyrosine-protein kinase JAK1 (P23458 whole entry): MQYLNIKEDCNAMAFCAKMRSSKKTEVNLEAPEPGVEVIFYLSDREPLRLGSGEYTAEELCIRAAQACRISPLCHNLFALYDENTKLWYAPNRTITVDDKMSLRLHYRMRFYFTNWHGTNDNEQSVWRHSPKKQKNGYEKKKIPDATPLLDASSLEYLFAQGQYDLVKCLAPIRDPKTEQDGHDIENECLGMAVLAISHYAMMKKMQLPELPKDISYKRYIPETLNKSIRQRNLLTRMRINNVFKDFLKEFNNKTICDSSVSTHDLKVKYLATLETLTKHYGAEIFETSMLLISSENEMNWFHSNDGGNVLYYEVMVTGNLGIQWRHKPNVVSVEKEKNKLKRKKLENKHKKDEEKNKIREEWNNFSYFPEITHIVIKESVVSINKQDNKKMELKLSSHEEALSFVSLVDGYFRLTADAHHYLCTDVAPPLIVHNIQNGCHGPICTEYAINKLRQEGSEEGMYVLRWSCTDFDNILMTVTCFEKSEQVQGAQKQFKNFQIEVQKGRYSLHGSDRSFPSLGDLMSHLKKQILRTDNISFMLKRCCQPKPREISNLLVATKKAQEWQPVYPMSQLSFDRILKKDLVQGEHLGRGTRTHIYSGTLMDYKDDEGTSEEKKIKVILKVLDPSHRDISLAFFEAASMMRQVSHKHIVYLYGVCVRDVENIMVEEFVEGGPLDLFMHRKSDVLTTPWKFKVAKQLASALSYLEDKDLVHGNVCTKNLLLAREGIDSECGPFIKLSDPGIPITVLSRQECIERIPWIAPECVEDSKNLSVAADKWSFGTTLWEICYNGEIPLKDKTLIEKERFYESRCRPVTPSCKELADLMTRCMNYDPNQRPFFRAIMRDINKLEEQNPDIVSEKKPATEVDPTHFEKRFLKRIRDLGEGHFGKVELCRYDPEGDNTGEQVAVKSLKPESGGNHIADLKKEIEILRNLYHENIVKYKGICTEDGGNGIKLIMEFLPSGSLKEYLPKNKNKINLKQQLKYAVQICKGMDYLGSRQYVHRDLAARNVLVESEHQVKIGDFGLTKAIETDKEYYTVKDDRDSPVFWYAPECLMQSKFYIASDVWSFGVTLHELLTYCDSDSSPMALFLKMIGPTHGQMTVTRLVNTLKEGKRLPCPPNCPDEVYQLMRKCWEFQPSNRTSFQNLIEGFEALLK

[2] = molecular target: T1, Tyrosine-protein kinase JAK3 (Homo sapiens, UniProt P52333); experiment: High ATP Caliper Endpoint Assay: JAK3 enzyme (Invitrogen) stock solution is made up at 4.1 uM in sterile water. JAK3 enzyme stock is diluted to 2 nM in assay buffer (10 mM HEPES free acid pH 7.5, 10 mM HEPES free base pH 7.5, 10 mM MgCL2, 0.0005% Tween-20, 0.01% BSA) containing 2 mM DTT (all supplied by Sigma). ATP is made up at 10 mM stock in sterile water and diluted to 800 uM in assay buffer. …
T1 sequence (P52333 whole entry): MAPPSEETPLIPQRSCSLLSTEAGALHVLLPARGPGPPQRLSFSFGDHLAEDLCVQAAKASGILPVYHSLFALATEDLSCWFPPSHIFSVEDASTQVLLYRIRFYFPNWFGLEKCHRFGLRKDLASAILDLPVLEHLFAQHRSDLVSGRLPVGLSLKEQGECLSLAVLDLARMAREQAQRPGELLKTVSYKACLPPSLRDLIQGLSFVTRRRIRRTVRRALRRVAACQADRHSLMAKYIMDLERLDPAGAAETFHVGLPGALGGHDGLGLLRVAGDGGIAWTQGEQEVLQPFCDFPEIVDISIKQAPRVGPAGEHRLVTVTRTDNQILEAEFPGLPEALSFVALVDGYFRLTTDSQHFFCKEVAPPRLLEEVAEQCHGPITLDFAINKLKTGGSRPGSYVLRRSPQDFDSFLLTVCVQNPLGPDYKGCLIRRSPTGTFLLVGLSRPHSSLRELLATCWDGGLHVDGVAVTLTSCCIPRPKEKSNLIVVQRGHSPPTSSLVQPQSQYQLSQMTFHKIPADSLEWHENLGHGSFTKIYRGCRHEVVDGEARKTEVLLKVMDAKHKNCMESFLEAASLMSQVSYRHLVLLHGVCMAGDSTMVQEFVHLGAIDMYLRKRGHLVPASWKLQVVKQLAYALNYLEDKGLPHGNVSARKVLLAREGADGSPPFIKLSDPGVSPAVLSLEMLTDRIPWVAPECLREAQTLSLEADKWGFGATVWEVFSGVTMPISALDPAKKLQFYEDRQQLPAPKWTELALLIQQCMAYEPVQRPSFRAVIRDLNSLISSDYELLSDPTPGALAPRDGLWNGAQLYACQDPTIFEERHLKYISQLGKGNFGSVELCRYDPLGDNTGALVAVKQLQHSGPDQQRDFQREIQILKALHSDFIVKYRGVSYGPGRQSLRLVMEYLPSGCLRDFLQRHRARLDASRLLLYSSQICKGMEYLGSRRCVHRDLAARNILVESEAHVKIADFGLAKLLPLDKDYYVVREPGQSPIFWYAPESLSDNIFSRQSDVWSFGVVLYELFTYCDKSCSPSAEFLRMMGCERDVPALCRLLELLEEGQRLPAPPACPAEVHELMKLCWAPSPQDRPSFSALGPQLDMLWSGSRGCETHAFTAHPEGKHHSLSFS

| SMILES | IC50 [1] | IC50 [2] |
| --- | --- | --- |
| CCc1cc(O)c(F)cc1-c1ccc2c(-c3nc4c([nH]3)CCN(C(=O)c3ccc(C#N)nc3)CC4)n[nH]c2c1 | 3.4 nM | 1.4 nM |
| CCc1cc(O)c(F)cc1-c1ccc2c(-c3nc4c([nH]3)CCN(Cc3ccc5ncccc5c3)C4)n[nH]c2c1 | 4.2 nM | 1.4 nM |
